Data set [1] in a line: Antiproliferative activity against human WI38 cells after 72 hrs by CCK8 assay. In kind it is cell-based, WI-38. (Tetrazolium dyes change colour on reduction, which living cells bring about.)
The target of a further data set is Histone deacetylase 9 (Homo sapiens, UniProt Q9UKV0). Kind of data set: Inhibition of recombinant human HDAC9 after 60 mins by fluorescence assay.
Another data set has as its target T1, Histone deacetylase 11 (Homo sapiens, UniProt Q96DB2).
T1 sequence (Q96DB2 whole entry): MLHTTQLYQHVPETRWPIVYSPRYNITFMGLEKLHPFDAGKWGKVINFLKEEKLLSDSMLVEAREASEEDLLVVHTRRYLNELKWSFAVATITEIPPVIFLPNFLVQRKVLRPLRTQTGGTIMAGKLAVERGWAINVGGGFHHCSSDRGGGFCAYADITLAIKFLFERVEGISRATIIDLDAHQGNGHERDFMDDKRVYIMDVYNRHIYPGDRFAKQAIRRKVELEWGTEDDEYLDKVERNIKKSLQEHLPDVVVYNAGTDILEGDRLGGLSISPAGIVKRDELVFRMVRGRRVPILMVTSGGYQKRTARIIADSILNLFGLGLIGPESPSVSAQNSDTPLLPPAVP
In words: Inhibition of recombinant human HDAC11 after 60 mins by fluorescence assay.

Data set [2] is described as follows: Antiproliferative activity against human HLF cells after 72 hrs by CCK8 assay. In kind it is cell-based.
The target of a further data set is T2, Histone deacetylase 7 (Homo sapiens, UniProt Q8WUI4).
T2 sequence (Q8WUI4 whole entry): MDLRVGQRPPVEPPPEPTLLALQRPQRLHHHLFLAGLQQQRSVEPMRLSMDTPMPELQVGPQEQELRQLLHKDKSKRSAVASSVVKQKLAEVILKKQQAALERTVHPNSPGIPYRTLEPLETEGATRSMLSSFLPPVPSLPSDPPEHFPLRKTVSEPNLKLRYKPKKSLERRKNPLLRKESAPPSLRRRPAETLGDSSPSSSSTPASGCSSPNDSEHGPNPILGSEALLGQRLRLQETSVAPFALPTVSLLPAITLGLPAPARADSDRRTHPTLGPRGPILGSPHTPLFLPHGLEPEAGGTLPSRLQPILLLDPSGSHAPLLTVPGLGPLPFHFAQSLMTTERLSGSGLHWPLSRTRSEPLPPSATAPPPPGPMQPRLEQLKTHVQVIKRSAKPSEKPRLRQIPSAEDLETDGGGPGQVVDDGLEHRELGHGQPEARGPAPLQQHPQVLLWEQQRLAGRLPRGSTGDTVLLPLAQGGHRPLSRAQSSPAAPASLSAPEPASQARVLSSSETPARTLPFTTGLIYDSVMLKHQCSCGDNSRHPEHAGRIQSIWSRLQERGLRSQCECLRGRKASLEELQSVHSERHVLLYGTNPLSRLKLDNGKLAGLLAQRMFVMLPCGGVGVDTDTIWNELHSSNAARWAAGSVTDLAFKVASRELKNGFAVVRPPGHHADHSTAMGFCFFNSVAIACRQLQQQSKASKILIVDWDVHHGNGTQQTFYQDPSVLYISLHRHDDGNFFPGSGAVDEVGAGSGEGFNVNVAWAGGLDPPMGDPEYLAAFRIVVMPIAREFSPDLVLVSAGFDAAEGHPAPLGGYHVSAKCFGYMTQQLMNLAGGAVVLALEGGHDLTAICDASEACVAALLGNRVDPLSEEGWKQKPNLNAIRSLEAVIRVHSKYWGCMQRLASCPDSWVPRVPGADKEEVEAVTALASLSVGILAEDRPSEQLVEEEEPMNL
In words: Inhibition of recombinant human HDAC7 after 60 mins by fluorescence assay.

Data set [3] deals with T3, Polyamine deacetylase HDAC10 (Homo sapiens, UniProt Q969S8).
T3 sequence (Q969S8 whole entry): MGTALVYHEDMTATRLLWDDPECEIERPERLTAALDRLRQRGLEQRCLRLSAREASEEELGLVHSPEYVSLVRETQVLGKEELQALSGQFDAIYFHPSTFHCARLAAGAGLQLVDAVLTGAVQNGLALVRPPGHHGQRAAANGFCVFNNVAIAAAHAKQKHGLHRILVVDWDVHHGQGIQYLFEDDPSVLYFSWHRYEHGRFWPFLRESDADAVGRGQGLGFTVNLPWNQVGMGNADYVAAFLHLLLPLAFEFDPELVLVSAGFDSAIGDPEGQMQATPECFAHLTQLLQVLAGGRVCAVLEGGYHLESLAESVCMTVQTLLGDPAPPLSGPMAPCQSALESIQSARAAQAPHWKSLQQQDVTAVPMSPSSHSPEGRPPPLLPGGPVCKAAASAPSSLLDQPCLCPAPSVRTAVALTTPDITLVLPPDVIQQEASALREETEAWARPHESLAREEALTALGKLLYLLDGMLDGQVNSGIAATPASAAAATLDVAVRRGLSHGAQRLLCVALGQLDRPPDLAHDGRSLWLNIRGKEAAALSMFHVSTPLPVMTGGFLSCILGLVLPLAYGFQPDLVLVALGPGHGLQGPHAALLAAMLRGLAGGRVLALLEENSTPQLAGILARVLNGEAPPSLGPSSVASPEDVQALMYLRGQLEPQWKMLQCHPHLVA
Kind of data set: Inhibition of recombinant human HDAC10 after 60 mins by fluorescence assay.

The target in the next data set is Histone deacetylase 1 (Homo sapiens, UniProt Q13547). In words: Inhibition of recombinant human HDAC1 after 60 mins by fluorescence assay.
The next data set deals with Histone deacetylase 4 (Homo sapiens, UniProt P56524). Kind of data set: Inhibition of recombinant human HDAC4 after 60 mins by fluorescence assay.
The target in a further data set is Histone deacetylase 5 (Homo sapiens, UniProt Q9UQL6). In words: Inhibition of recombinant human HDAC5 after 60 mins by fluorescence assay.
The target in data set [4] is T4, Protein deacetylase HDAC6 (Homo sapiens, UniProt Q9UBN7).
T4 sequence (Q9UBN7 whole entry): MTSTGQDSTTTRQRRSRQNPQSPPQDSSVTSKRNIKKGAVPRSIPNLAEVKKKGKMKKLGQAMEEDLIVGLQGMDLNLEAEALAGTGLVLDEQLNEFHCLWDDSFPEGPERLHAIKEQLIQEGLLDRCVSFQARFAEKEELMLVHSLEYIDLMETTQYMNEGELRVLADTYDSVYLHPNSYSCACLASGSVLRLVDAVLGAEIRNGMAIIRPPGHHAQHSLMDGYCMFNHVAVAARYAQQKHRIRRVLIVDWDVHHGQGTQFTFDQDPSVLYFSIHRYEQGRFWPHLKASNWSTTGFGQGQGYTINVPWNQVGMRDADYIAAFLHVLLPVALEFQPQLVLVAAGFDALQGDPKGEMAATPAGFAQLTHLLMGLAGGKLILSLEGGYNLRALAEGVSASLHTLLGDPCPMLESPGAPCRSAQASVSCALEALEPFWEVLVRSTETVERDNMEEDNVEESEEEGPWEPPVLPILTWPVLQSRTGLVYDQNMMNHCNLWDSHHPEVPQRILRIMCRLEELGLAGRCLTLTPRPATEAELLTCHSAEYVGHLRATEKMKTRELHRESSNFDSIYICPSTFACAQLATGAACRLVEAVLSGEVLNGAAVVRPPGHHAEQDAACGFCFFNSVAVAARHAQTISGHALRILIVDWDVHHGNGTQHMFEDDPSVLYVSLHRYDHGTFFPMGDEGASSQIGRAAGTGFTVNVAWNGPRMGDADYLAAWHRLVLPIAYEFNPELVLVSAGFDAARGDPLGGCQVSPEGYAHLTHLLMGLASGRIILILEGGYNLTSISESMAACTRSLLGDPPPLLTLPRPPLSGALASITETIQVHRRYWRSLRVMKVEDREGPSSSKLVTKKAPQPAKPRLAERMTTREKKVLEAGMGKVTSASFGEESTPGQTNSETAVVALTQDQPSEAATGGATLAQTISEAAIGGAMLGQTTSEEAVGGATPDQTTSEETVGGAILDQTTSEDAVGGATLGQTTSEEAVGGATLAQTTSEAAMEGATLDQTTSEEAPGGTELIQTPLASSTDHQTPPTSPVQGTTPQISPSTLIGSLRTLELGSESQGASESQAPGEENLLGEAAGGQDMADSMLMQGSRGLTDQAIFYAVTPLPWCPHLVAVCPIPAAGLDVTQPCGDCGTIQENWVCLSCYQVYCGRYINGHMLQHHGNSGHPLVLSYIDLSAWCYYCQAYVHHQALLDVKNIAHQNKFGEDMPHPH
Kind of data set: Inhibition of recombinant human HDAC6 after 60 mins by fluorescence assay.

In a further data set the target is T5, Histone deacetylase 8 (Homo sapiens, UniProt Q9BY41).
T5 sequence (Q9BY41 whole entry): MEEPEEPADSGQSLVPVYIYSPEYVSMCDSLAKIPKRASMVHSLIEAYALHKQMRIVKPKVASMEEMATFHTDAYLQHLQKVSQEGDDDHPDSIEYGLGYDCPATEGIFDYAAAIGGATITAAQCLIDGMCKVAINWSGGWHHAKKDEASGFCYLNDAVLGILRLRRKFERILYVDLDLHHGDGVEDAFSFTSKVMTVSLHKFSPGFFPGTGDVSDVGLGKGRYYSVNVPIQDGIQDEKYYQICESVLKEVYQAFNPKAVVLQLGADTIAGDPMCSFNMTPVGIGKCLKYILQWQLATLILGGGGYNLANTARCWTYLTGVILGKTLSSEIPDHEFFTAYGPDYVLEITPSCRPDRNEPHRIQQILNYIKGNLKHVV
Kind of data set: Inhibition of recombinant human HDAC8 after 60 mins by fluorescence assay.

A further data set has as its target Histone deacetylase 2 (Homo sapiens, UniProt Q92769). In words: Inhibition of recombinant human HDAC2 after 60 mins by fluorescence assay.
The subject of a further data set is DU-145. Kind of data set: Antiproliferative activity against human DU145 cells after 72 hrs by CCK8 assay. In kind it is functional.
Data set [5] is described as follows: Antiproliferative activity against human MOLT4 cells after 72 hrs by CCK8 assay. It is filed as functional, MOLT-4.
A further data set relates to U-937. Kind of data set: Antiproliferative activity against human U937 cells after 72 hrs by CCK8 assay. In kind it is functional.

Structures are written as SMILES. Where only a bound is given, the exact number is not on record here.

Sequence of Histone deacetylase 4 (P56524 whole entry): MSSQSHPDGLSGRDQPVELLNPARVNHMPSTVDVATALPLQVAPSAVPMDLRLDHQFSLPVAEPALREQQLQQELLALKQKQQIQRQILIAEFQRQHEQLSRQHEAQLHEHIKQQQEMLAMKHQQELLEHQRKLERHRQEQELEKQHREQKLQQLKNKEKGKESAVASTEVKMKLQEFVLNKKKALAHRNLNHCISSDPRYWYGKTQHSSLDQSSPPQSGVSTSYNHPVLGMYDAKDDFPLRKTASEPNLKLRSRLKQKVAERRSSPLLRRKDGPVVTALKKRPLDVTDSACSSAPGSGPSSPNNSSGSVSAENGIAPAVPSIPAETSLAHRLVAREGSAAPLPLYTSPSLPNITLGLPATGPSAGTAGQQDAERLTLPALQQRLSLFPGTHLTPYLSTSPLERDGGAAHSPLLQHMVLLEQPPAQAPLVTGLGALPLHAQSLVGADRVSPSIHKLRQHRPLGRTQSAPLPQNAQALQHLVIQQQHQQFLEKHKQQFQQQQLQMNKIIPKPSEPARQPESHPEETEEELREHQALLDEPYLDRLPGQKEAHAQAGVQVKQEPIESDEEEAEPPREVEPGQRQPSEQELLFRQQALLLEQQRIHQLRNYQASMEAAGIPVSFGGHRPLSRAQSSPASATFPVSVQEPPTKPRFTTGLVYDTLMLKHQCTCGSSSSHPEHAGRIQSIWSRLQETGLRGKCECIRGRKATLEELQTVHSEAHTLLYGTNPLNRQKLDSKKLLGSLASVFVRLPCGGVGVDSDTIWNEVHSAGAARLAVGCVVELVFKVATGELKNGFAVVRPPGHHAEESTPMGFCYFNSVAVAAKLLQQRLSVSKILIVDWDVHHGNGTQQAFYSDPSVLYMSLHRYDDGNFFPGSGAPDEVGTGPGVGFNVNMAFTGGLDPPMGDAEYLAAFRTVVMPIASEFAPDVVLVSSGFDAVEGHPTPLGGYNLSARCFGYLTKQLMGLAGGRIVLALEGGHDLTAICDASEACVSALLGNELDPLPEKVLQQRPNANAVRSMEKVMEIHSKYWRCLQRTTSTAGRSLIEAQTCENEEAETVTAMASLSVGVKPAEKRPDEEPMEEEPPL
Sequence of Histone deacetylase 9 (Q9UKV0 whole entry): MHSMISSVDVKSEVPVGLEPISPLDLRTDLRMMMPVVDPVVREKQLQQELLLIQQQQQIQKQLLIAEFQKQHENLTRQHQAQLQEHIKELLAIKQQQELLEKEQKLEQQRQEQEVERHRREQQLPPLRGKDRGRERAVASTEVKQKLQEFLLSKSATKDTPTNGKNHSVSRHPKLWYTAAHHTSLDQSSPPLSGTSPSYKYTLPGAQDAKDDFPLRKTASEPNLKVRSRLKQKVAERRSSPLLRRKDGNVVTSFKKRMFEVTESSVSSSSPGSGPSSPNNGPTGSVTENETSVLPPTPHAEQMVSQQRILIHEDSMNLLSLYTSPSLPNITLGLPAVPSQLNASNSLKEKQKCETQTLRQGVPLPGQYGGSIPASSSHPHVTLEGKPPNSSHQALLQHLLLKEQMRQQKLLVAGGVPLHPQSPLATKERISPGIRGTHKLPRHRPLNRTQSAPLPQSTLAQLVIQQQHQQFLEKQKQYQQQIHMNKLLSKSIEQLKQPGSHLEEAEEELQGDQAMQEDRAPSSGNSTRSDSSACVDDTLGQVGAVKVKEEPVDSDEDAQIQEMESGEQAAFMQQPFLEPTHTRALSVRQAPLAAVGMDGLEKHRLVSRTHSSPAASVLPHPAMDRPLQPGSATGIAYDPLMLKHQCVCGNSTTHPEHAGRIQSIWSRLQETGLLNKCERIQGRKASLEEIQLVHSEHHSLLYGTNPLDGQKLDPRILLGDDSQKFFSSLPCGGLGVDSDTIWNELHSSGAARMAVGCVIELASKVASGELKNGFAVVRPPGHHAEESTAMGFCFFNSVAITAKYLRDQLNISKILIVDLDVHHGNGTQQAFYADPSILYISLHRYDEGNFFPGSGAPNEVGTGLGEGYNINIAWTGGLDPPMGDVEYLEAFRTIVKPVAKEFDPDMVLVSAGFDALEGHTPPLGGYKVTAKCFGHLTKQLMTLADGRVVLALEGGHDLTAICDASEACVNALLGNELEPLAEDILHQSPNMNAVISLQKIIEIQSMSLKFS
Sequence of Histone deacetylase 5 (Q9UQL6 whole entry): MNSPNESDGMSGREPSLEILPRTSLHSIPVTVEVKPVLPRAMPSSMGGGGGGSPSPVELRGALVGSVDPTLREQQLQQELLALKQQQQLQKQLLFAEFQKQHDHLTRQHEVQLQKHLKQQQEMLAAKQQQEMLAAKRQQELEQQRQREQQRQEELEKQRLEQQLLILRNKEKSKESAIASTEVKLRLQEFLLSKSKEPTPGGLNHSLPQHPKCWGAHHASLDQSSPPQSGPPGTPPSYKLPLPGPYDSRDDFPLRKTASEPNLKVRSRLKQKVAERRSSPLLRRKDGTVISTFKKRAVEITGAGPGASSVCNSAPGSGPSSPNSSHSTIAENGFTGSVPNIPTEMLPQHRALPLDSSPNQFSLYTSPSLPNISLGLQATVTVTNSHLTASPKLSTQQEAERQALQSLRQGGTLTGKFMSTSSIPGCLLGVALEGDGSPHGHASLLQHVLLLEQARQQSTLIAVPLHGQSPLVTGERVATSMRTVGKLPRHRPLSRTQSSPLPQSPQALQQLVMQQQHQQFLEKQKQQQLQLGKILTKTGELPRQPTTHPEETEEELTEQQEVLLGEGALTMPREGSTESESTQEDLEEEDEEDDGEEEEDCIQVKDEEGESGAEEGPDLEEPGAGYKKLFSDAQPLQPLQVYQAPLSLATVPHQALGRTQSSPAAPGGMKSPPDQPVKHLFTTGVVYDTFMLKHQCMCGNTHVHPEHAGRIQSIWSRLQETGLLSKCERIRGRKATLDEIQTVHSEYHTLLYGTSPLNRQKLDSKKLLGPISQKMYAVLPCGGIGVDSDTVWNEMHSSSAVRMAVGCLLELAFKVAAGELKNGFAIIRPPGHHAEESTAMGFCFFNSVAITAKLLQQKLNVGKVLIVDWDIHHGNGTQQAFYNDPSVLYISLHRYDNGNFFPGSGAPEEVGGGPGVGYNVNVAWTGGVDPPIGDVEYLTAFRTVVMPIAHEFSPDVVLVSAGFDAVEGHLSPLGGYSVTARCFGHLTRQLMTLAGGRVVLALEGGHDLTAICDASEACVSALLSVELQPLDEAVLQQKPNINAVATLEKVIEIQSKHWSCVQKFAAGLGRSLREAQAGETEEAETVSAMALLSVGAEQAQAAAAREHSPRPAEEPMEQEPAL
Sequence of Histone deacetylase 1 (Q13547 whole entry): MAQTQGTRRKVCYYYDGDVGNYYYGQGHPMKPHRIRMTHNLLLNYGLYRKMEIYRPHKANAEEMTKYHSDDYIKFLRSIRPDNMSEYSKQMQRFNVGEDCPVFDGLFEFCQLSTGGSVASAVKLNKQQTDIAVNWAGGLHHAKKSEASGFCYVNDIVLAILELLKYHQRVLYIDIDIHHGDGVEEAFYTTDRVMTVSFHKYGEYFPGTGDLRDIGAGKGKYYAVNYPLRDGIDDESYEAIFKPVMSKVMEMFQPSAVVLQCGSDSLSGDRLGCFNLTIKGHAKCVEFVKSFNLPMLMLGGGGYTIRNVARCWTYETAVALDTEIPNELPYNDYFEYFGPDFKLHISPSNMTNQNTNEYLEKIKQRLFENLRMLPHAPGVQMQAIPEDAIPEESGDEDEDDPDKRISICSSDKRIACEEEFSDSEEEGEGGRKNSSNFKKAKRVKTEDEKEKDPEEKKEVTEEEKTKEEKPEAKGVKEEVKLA
Sequence of Histone deacetylase 2 (Q92769 whole entry): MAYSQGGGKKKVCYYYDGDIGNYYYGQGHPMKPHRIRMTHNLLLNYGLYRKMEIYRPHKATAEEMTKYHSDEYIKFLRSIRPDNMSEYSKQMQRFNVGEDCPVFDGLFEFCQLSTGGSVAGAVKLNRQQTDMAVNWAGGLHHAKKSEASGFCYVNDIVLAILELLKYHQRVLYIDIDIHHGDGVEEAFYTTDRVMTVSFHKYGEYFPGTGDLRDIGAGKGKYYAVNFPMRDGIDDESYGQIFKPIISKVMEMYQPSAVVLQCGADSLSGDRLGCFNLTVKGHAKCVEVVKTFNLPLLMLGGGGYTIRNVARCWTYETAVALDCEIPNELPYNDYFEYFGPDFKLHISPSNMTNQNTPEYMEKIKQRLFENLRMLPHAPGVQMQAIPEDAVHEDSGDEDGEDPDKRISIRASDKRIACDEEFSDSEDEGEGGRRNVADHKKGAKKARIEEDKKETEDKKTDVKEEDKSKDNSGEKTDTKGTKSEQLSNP

The term GI50 denotes the concentration at which growth is held to half of that of the control. The low end stands for more potent growth inhibition, the high end for less potent growth inhibition. A word on the IC50: it is the point on the concentration scale where inhibition reaches its midpoint. Take `C/C=C1\NC(=O)[C@H]2CSSCC/C=C/[C@H](CC(=O)N[C@H](C(C)C)C(=O)N2)OC(=O)[C@H](C(C)C)NC1=O` [ROMIDEPSIN]: the GI50 at 72 h in data set [1] was found to be 5.39 nM; in data set [2], 4.89 nM. Moreover, the IC50 at Histone deacetylase 9 is above 10000 nM; on Histone deacetylase 11 it was above 10000 nM; at Histone deacetylase 7, above 10000 nM; in data set [3], 11 nM; on Histone deacetylase 1, 1050 nM; at Histone deacetylase 4, above 10000 nM. In addition, the IC50 at Histone deacetylase 5 was above 10000 nM.

For `C/C=C1\NC(=O)C(CS)NC(=O)[C@@H](C(C)C)NC(=O)C[C@@H](/C=C/CCS)OC(=O)[C@H](C(C)C)NC1=O` (single isomer, unassigned) [FR-135313], the IC50 is 149 nM in data set [4]; above 10000 nM at Histone deacetylase 9; 2360 nM at Histone deacetylase 11; 1760 nM on Histone deacetylase 7; 3.9 nM in [3]; 9570 nM at Histone deacetylase 4. Besides, the IC50 was 25 nM on Histone deacetylase 8, above 10000 nM on Histone deacetylase 5 and 1.4 nM on Histone deacetylase 2.

Take `CCCCCCCC(=O)SCC/C=C/[C@@H]1CC(=O)NCc2nc(cs2)C2=N[C@@](C)(CS2)C(=O)N[C@@H](C(C)C)C(=O)O1` [LARGAZOLE]: the GI50 at 72 h in data set [1] came out at 82.5 nM; in data set [2] it was 39.7 nM. Further, the GI50 stood at 11 nM with DU-145 (Homo sapiens, DU-145, 72 h); 16.2 nM in [5] (Homo sapiens, MOLT-4, 72 h); 16.8 nM in the data set with U-937 (Homo sapiens, U-937, 72 h). Also, the IC50 is above 10000 nM at Histone deacetylase 9; above 10000 nM at Histone deacetylase 11; above 10000 nM on Histone deacetylase 7; 2210 nM in data set [3]; 69.8 nM on Histone deacetylase 1; above 10000 nM at Histone deacetylase 4. The 50% inhibitory concentration (IC50) on Histone deacetylase 8 is above 10000 nM; on Histone deacetylase 5 it was above 10000 nM; on Histone deacetylase 2, 1010 nM.

Turning to `O=C(CCCCCCC(=O)Nc1ccccc1)NO` [VORINOSTAT], the concentration for 50% growth inhibition (GI50) at 72 h in [1] stood at 6080 nM; in data set [2], 1650 nM. The figures for the GI50 (in the data set with DU-145; in data set [5]; with U-937) were 1590 nM, 542 nM and 1460 nM, respectively.

The values above are taken from ChEMBL document CHEMBL3621100, “Discovery of Novel Class I Histone Deacetylase Inhibitors with Promising in Vitro and in Vivo Antitumor Activities” (J Med Chem, 2015).
